Measured values from patent US9914760B2, “Methods of identifying, isolating and using odorant and aroma receptors” (Firmenich SA, priority 2013, dated 2018).

What was measured:
[1] = system: olfactory sensory neurons; test: Ca2+ imaging of dissociated olfactory sensory neurons (Fura-2); assay type: cell-based, mouse; details: 50 μM each; 6 independent neurons (FIG. 2)
Description: The olfactory epithelium containing native olfactory neurons from a mouse was isolated and dissociated into single cells and then transferred to a dissociation buffer for a gentle mechanical and enzymatic dissociation. In order to optimize the dissociation protocol, the general procedure for making fresh dissociation buffer was followed as set forth in Araneda et al. (2004), A Pharmacological Profile of the Aldehyde Receptor Repertoire in Rat Olfactory Epithelium. Journal of Physiology: 555:743-756 with the following modifications: DNAse I instead of DNAse II, Ca2+ concentration elevated to 5 mM and pH adjusted at 7.35 at 32°. Dissociated neurons were then seeded on a coverslip allowing the screening of >2,500 cells by fluorescence microscopy. The cells were then loaded with a calcium sensitive dye (Fura-2 AM) for 30 minutes at 31° C. and transferred onto a microscope ready for screening. […]
Olfactory neurons that responded to indole and skatole were identified by stimulating receptors with 50 μm indole followed by 50 μm skatole and monitoring the intracellular Ca2+ flux indicated by changes in Fura-2 fluorescence. […] Average Fluorescence Intensity, relative fluorescent unit as a result of a ratiometric 340/380 nm recordings.

Olfr740 = test: cell-based cAMP assay (HTRF), HEK293T co-transfected with Gαolf; parameters: species or system mouse; details: increasing concentrations; FIGS. 5A-5D
Description: (§1) The activity of candidate mouse receptors Olfr740 (SEQ ID NO: 1 and SEQ ID NO: 2), Olfr743 (SEQ ID NO: 5 and SEQ ID NO: 6), and Olfr746 (SEQ ID NO: 37 and SEQ ID NO: 38) to both indole and skatole malodors were confirmed in cell-based cAMP assays. In FIGS. 5A and 5B, FLAG Rho-tagged (SEQ ID 18) Olfr743 (SEQ ID NO: 6) and Olfr740 (SEQ ID NO: 2) cDNA sequences were co-transfected with Gαolf (SEQ ID NO: 21) and exposed to increasing concentrations of indole (left) or skatole (right). FIGS. 5C and 5D are repeat experiments showing similar activity of Olfr740 (SEQ ID NO: 2) with Olfr743 (SEQ ID NO: 6) with indole and skatole. In FIG. 5E, the FLAG Rho-tagged (SEQ ID 18) Olfr746 (SEQ ID NO: 38) cDNA sequence was co-transfected with Gαolf (SEQ ID NO: 21) and exposed to increasing concentrations of indole or skatole. Odorant-induced activity was detected by measuring cAMP levels in the cytosol using the HTRF approach (CisBio kit). […] Co-transfection of HEK cells with Gαolf (SEQ ID NO: 21) alone (no receptor) were used as controls for non-specific activity (control). Activity is defined as the baseline corrected HTRF ratios normalized to the highest signal in the experiment. […] All three receptors show specific dose dependent activity to the malodor compounds and, as such, validate the process for identifying receptors for these compounds. Mouse receptors Olfr740 (SEQ ID NO: 1 and SEQ ID NO: 2) and Olfr743 (SEQ ID NO: 5 and SEQ ID NO: 6) were identified from isolated olfactory neurons that responded to both indole and skatole. Mouse receptor Olfr746 (SEQ ID NO: 37 and SEQ ID NO: 38) was identified in silico by database mining using Olfr740 (SEQ ID NO: 2) and Olfr743 (SEQ ID NO: 6) as query sequences. The receptors are modified at their N-terminus with the FLAG tag and the first 20 amino acids of the bovine rhodopsin receptor (SEQ ID 18), transiently expressed in HEK 293T cells, and stimulated separately with indole and skatole to confirm their identity as bona fide indole/skatole receptors. Co-expression of the human G alpha subunit Gαolf (SEQ ID NO: 21) activates the Gs transduction pathway that leads to an internal cAMP increase upon binding to the appropriate ligand.

Olfr746 = test: as above; parameters: species or system mouse; details: increasing concentrations; FIG. 5E
Description: as §1

Olfr736 = test: in vitro receptor response to indole or skatole; assay type: cell-based, mouse; details: likely lack of cell surface expression
Description: (§2) In another aspect, human receptor OR52N2 (SEQ ID NO: 11 and SEQ ID NO: 12) was identified because of its sequence similarity to mouse Olfr665 (SEQ ID NO: 9 and SEQ ID NO: 10), an indole/skatole receptor isolated from olfactory neurons responding to both indole and skatole (Example 6). Human receptor OR11G2 (SEQ ID NO: 13 and SEQ ID NO: 14) was identified because of its sequence similarity to mouse Olfr740 (SEQ ID NO: 1 and SEQ ID NO: 2), an indole/skatole receptor isolated from olfactory neurons responding to both indole and skatole (Example 6). Human receptor OR5AC2 (SEQ ID NO: 75 and SEQ ID NO: 76) was identified because of its sequence similarity to mouse Olfr207 (SEQ ID NO: 77 and SEQ ID NO: 78), an indole/skatole receptor isolated from olfactory neurons responding to both indole and skatole (Example 6). Human receptor OR4C15 (SEQ ID NO: 79 and SEQ ID NO: 80) was identified because of its sequence similarity to mouse Olfr1211 (SEQ ID NO: 81 and SEQ ID NO: 82), an indole/skatole receptor isolated from olfactory neurons responding to both indole and skatole (Example 6). Human receptor OR8S1 (SEQ ID NO: 83 and SEQ ID NO: 84) was identified because of its sequence similarity to mouse Olfr257 (SEQ ID NO: 85 and SEQ ID NO: 86), an indole/skatole receptor isolated from olfactory neurons responding to both indole and skatole (Example 6). Mouse receptor Olfr665 (SEQ ID NO: 9 and SEQ ID NO: 10) was identified directly from NGS data from isolated olfactory neurons responding to both indole and skatole (Example 6). Mouse receptor Olfr740 (SEQ ID NO: 1 and SEQ ID NO: 2) was identified directly from NGS data from isolated olfactory neurons responding to both indole and skatole (Example 6).

Olfr747 = test: in vitro receptor response to indole or skatole; assay type: cell-based, mouse; details: despite proper cell surface expression (immunostaining)
Description: as §2

Olfr748 = test: in vitro receptor response to indole or skatole; assay type: cell-based, mouse; details: despite proper cell surface expression (immunostaining)
Description: as §2

| SMILES | activation of olfactory sensory neurons (intracellular Ca2+ flux, Fura-2 fluorescence) [1] | receptor activity (cAMP, HTRF) (Olfr740) | receptor activity (cAMP, HTRF) (Olfr746) | receptor response (Olfr736) | receptor response (Olfr747) | receptor response (Olfr748) |
| --- | --- | --- | --- | --- | --- | --- |
| c1ccc2[nH]ccc2c1 [indole] | activated | dose-dependent increase of receptor activity | dose-dependent increase of receptor activity | failed to respond | failed to respond | failed to respond |
| Cc1c[nH]c2ccccc12 [skatole, 3-methyl indole] | activated | dose-dependent increase of receptor activity | dose-dependent increase of receptor activity | failed to respond | failed to respond | failed to respond |
